In patent US20250325535A1, “IDENTIFICATION OF NOVEL SMALL-MOLECULE INHIBITORS OF SARS-CoV-2 BY CHEMICAL GENETICS” (The University of Hong Kong, priority 2024, published 2025):

Assays:
[1] = tested on: SARS-CoV-2 variants and other human coronaviruses; assay: microbe, parasite or virus in culture; type: cell-based; settings: Severe acute respiratory syndrome coronavirus 2, read-out: IC50 (antiviral)
[2] = tested on: 3CLpro S301P recombinant SARS-CoV-2; type: cell-based; settings: for IC50: read-out: IC50 (plaque formation assay)
[3] = tested on: SARS-COV-2 Alpha variant (B.1.1.7); type: in vivo, K18-hACE2 transgenic mice; settings: n=5, IP once daily; 172 50 mg/kg, Nirmatrelvir 200 mg/kg; vehicle mice died day 5-6

| SMILES | IC50 [1] | IC50 [2] | time of death (survival) [3] | inhibition of virus replication [2] |
| --- | --- | --- | --- | --- |
| CC(C)(C)[C@H](NC(=O)C(F)(F)F)C(=O)N1C[C@H]2[C@@H]([C@H]1C(=O)N[C@H](C#N)C[C@@H]1CCNC1=O)C2(C)C [Nirmatrelvir] | 4.5 to 32 nM | 20.1 nM | one mouse died on day 6, and all remaining mice died on day 8 |  |
| CCOc1cc2ncc(C#N)c(Nc3ccc(F)c(Cl)c3)c2cc1NC(=O)/C=C/CN(C)C [Pelitinib] |  | 7300 nM |  | not the mutant virus |
